Structures can show the parent of a compound that is named as a salt.
Experiments:
[1] = Multicenter placebo-controlled dose response study of intramuscular PBZ: safety and tolerance (Example II); assay type: in vivo, human
Procedure: (§1) This was a multicenter, randomized, placebo-controlled, double-blind, dose response study of intramuscular phenoxybenzamine hydrochloride (PBZ) versus vehicle and saline placebos. Phenoxybenzamine formulation known in the art (propylene glycol and alcohol) and diluted in saline at the time of injection were evaluated. […] Patients with pain in the most commonly affected regions, the upper and lower back, were studied. Patients enrolled in this study were male or female with 4 months to 8 years of myofascial pain syndrome with identifiable active trigger points. Patients were required to have had EMG documented triggers points and meet the criteria of <10 uV in the adjacent muscle site and have a minimum of a 2:1 ratio of trigger point amplitude: adjacent amplitude. Attempts were made to obtain maximum amplitude in the trigger point.
The primary objectives of this study were to evaluate the safety, tolerance, and efficacy of 4 doses (0.1, 0.3, 1.0, or 2.4 mg) of phenoxybenzamine per intramuscular injection site. The vehicle placebo group received vehicle in a concentration equivalent to the active doses. A second placebo was saline. All injections were of 0.3 ml in volume. Up to 10 trigger points were injected at each treatment session. There were up to 2 treatment sessions up to 10 days apart. The primary efficacy evaluation was made at week 12 of treatment. The Visual Analogue Pain Scale (VAS) was used to assess pain in the affected region before and after treatment. Secondary efficacy assessments included the McGill Pain Questionnaire (MPQ), the Spinal Function Sort (SFS) and the SF-36 Quality of Life questionnaire.
Thirty-two of the 79 patients (41%) in the saline placebo group, 33 of 83 patients (40%) in the vehicle placebo group, 35 of the 86 patients (41%) in the 1 mg group, and 37 of the 81 patients (46%) in the 2.4 mg group experienced 1 or more treatment-emergent adverse experiences. For all treatment groups combined, the most common adverse experiences observed were dizziness: 8%; pain 5%; nausea: 3%, and sweating: 3%. […] The most frequent adverse experiences were dizziness (8%) and pain (5%), followed by headache, sweating, and nausea (3% each).

[2] = pH of phenoxybenzamine formulations; assay type: physicochemical; conditions: active solutions
Procedure: as §1
For determination of the pH value of the active solutions, a 5% solution of the Phenoxybenzamine HCL measured 3.25. Examples of packaging material include 2-mL vials, Pharmatek Lot No. 0001, Part No. PTC-0001; rubber stoppers, Pharmatek Lot No. 0002, Part No. PTC-0002; Truedge® seals, Pharmatek Lot No. 0003, Part No. PTC-0003; Supor® filters, Pharmatek Lot No. 0005, Part No. PTC-0004; and labels, to be generated by PrimaPharm Inc. These can be supplied in the form of a kit.

[3] = 1 mg PBZ per injection site, 86 patients

## CC(COc1ccccc1)N(CCCl)Cc1ccccc1 (stereo not shown) [Phenoxybenzamine Hydrochloride, phenoxybenzamine hydrochloride]
[1]; 0.1 mg PBZ per injection site
  Dizziness, % of patients: 5%
  Dizziness, number of patients: 1
  Ecchymosis, % of patients: 0 (0%)
  Ecchymosis, number of patients: 0 (0%)
  Flu syndrome, % of patients: 0 (0%)
  Flu syndrome, number of patients: 0 (0%)
  Headache, % of patients: 0 (0%)
  Headache, number of patients: 0 (0%)
  Hypotension, % of patients: 0 (0%)
  Hypotension, number of patients: 0 (0%)
  Infection, % of patients: 0 (0%)
  Infection, number of patients: 0 (0%)
  Injection site edema, % of patients: 0 (0%)
  Injection site edema, number of patients: 0 (0%)
  Nausea, % of patients: 0 (0%)
  Nausea, number of patients: 0 (0%)
  Pain, % of patients: 5%
  Pain, number of patients: 1
  Sweating, % of patients: 0 (0%)
  Sweating, number of patients: 0 (0%)
  Syncope, % of patients: 0 (0%)
  Syncope, number of patients: 0 (0%)
  TOTAL NUMBER OF PATIENTS reporting treatment-emergent adverse experiences, % of patients: (33%)
  TOTAL NUMBER OF PATIENTS reporting treatment-emergent adverse experiences, number: 7
[1]; 0.3 mg PBZ per injection site
  Dizziness, % of patients: 0 (0%)
  Dizziness, number of patients: 0 (0%)
  Ecchymosis, % of patients: 0 (0%)
  Ecchymosis, number of patients: 0 (0%)
  Flu syndrome, % of patients: 5%
  Flu syndrome, number of patients: 1
  Headache, % of patients: 5%
  Headache, number of patients: 1
  Hypotension, % of patients: 0 (0%)
  Hypotension, number of patients: 0 (0%)
  Infection, % of patients: 5%
  Infection, number of patients: 1
  Injection site edema, % of patients: 0 (0%)
  Injection site edema, number of patients: 0 (0%)
  Nausea, % of patients: 5%
  Nausea, number of patients: 1
  Pain, % of patients: 0 (0%)
  Pain, number of patients: 0 (0%)
  Sweating, % of patients: 0 (0%)
  Sweating, number of patients: 0 (0%)
  Syncope, % of patients: 0 (0%)
  Syncope, number of patients: 0 (0%)
  TOTAL NUMBER OF PATIENTS reporting treatment-emergent adverse experiences, % of patients: (23%)
  TOTAL NUMBER OF PATIENTS reporting treatment-emergent adverse experiences, number: 5
[1]; 1 mg PBZ per injection site
  Dizziness, % of patients: 13%
  Dizziness, number of patients: 11
  Ecchymosis, % of patients: 1 (1%)
  Ecchymosis, number of patients: 1 (1%)
  Flu syndrome, % of patients: 3 (3%)
  Flu syndrome, number of patients: 3 (3%)
  Headache, % of patients: 6%
  Headache, number of patients: 5
  Hypotension, % of patients: 2 (2%)
  Hypotension, number of patients: 2 (2%)
  Infection, % of patients: 2 (2%)
  Infection, number of patients: 2 (2%)
  Injection site edema, % of patients: 2 (2%)
  Injection site edema, number of patients: 2 (2%)
  Nausea, % of patients: 1 (1%)
  Nausea, number of patients: 1 (1%)
  Pain, % of patients: 8%
  Pain, number of patients: 7
  Sweating, % of patients: 3 (3%)
  Sweating, number of patients: 3 (3%)
  Syncope, % of patients: 2 (2%)
  Syncope, number of patients: 2 (2%)
[1]; [3]
  TOTAL NUMBER OF PATIENTS reporting treatment-emergent adverse experiences, % of patients: 41%
  TOTAL NUMBER OF PATIENTS reporting treatment-emergent adverse experiences, number: 35
[1]; 2.4 mg PBZ per injection site
  Dizziness, % of patients: (10%)
  Dizziness, number of patients: 8
  Ecchymosis, % of patients: 1 (1%)
  Ecchymosis, number of patients: 1 (1%)
  Flu syndrome, % of patients: 1 (1%)
  Flu syndrome, number of patients: 1 (1%)
  Headache, % of patients: 0 (0%)
  Headache, number of patients: 0 (0%)
  Hypotension, % of patients: 1 (1%)
  Hypotension, number of patients: 1 (1%)
  Infection, % of patients: 1 (1%)
  Infection, number of patients: 1 (1%)
  Injection site edema, % of patients: 9%
  Injection site edema, number of patients: 7
  Nausea, % of patients: 5%
  Nausea, number of patients: 4
  Pain, % of patients: 6%
  Pain, number of patients: 5
  Sweating, % of patients: 6%
  Sweating, number of patients: 5
  Syncope, % of patients: 1 (1%)
  Syncope, number of patients: 1 (1%)
[1]; 2.4 mg PBZ per injection site, 81 patients
  TOTAL NUMBER OF PATIENTS reporting treatment-emergent adverse experiences, number: 37
[1]; high dose groups, first and second treatments
  injection site soreness compared with placebo groups: Significantly more patients
[1]; in vivo
  injection site pain, mean duration: less than 10 days
  injection site pain, severity: mild to moderate
[1]; low dosages
  side effects at the injection site: caused some adverse side effected at the injection site
[2]
  pH of a 5% solution: 3.25
